Assay results published in patent publication US20140088124A1, “IMIDAZOLE DERIVATIVES” (priority 2011, published 2014).

Molecular target: T1, human DGAT1 enzyme expressed in Sf9 insect cells prepared as microsomes (Homo sapiens, UniProt O75907)
T1 construct: made in house; host or cells: Sf9 insect cells (microsomes)
T1 sequence (O75907 1-488): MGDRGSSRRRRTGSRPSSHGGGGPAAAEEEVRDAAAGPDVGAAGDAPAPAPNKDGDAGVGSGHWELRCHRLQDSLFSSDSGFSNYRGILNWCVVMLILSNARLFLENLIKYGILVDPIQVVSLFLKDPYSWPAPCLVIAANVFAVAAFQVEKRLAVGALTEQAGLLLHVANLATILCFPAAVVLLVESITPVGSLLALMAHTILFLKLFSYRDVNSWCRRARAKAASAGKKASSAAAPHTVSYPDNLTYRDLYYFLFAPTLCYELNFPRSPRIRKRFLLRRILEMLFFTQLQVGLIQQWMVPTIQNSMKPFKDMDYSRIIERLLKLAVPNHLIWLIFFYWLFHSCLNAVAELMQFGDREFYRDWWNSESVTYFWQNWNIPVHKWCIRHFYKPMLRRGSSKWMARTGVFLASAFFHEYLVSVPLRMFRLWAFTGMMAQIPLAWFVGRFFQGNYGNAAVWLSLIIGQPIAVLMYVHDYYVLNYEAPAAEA
Assay: in vitro assay to identify DGAT1 inhibitors ([14C]-palmitoyl-CoA, wheat germ agglutinin beads, TopCount)
Format: biochemical
Settings: 2 hours at room temperature
Description: If compounds 141-162 were assayed they were assayed as follows: the in vitro assay to identify DGAT1 inhibitors uses human DGAT1 enzyme expressed in Sf9 insect cells prepared as microsomes. The reaction is initiated by the addition of the combined substrates 1,2-dioleoyl-sn-glycerol and [^14C]-palmitoyl-Co A and incubated with test compounds and microsomal membranes for 2 hours at room temperature. The assay is stopped by adding 0.5 mg wheat germ agglutinin beads in assay buffer with 1% Brij-35 and 1% 3-cholamidopropyldimethyl-ammonio-1-propane sulfonate. Plates are sealed with TopSeal and incubated for 18 hours to allow the radioactive triglyceride product to come into proximity with the bead. Plates are read on a TopCount instrument.
Percent inhibition was calculated as the percent of (test compound inhibition minus non-specific binding) relative to (total binding minus non-specific binding). IC50 values were determined by curve fitting the data to a Sigmoidal dose-response in GraphPad Prism utilizing the following equation:
Y=A+(B−A)/(1+10̂((Log IC50−X))),
where A and B are the bottom and top of the curve (highest and lowest inhibition), respectively, and X is the logarithm of concentration.

Structure (SMILES) | IC50 [µM]
O=C(O)c1cc(OCC2CCN(c3ccc(-c4nc5cc(Cl)ccc5[nH]4)cn3)CC2)cc(C(=O)O)c1 [Example 146, 5-((1-(5-(5-chloro-1H-benzo[d]imidazol-2-yl)pyridin-2-yl)piperidin-4-yl)methoxy)isophthalic acid] | 0.018
O=C(O)c1cc(F)ccc1OCC1CCN(c2ccc(-c3nc4cc(Cl)ccc4[nH]3)cn2)CC1 [Example 148, 2-[[1-[5-(6-chloro-1H-benzimidazol-2-yl)-2-pyridinyl]-4-piperidinyl]methoxy]-5-fluorobenzoic acid] | 1.07
O=C(O)c1ccccc1OCC1CCN(c2ccc(-c3nc4cc(Cl)ccc4[nH]3)cn2)CC1 [Example 153] | 0.085
CC(C)(COCC1CCN(c2ccc(-c3nc4cc(Cl)ccc4[nH]3)cn2)CC1)C(=O)O [Example 159] | 0.108
O=C(O)c1ccc(F)cc1OCC1CCN(c2ccc(-c3nc4cc(Cl)ccc4[nH]3)cn2)CC1 [Example 154] | 0.058
O=C(O)C1(COCC2CCN(c3ccc(-c4nc5cc(Cl)ccc5[nH]4)cn3)CC2)CCC1 [Example 161] | 0.095
O=C(O)c1ccc(OCC2CCN(c3ccc(-c4nc5cc(Cl)ccc5[nH]4)cn3)CC2)cc1 [Example 150, 4-[[1-[5-(6-Chloro-1H-benzimidazol-2-yl)-2-pyridinyl]-4-piperidinyl]methoxy]benzoic acid] | 0.067
Cc1ccc(C(=O)O)cc1OCC1CCN(c2ccc(-c3nc4cc(Cl)ccc4[nH]3)cn2)CC1 [Example 156] | 0.012
O=C(O)c1cccc(OCC2CCN(c3ccc(-c4nc5cc(Cl)ccc5[nH]4)cn3)CC2)c1 [Example 144] | 0.008
COC(=O)c1cccc(OCC2CCN(c3ccc(-c4nc5cc(Cl)ccc5[nH]4)cn3)CC2)c1 [Example 143] | 1.83

Next, values leading:

IC50 [µM] | Structure (SMILES)
0.015 | Cc1ccc(C(=O)O)cc1OCC1CCN(c2ccc(-c3nc4cc(C(F)(F)F)ccc4[nH]3)cn2)CC1 [Example 157]
0.013 | O=C(O)c1cccc(OCC2CCN(c3ccc(-c4nc5cc(C(F)(F)F)ccc5[nH]4)cn3)CC2)c1 [Example 142, 3-[[1-[5-[5-(trifluoromethyl)-1H-benzol[d]imidazol-2-yl]pyridine-2-yl]piperidin-4-yl]methoxy]benzoic acid]
0.062 | O=C(O)C1(COCC2CCN(c3ccc(-c4nc5cc(C(F)(F)F)ccc5[nH]4)cn3)CC2)CCC1 [Example 162]
2.7 | COC(=O)c1ccccc1OCC1CCN(c2ccc(-c3nc4cc(C(F)(F)F)ccc4[nH]3)cn2)CC1 [Example 151]
0.014 | O=C(O)c1ccccc1OCC1CCN(c2ccc(-c3nc4cc(C(F)(F)F)ccc4[nH]3)cn2)CC1 [Example 152]
0.031 | O=C(O)c1ccc(F)cc1OCC1CCN(c2ccc(-c3nc4cc(C(F)(F)F)ccc4[nH]3)cn2)CC1 [Example 155]
0.084 | CC(C)(COCC1CCN(c2ccc(-c3nc4cc(C(F)(F)F)ccc4[nH]3)cn2)CC1)C(=O)O [Example 160]
2.5 | COC(=O)c1cccc(OCC2CCN(c3ccc(-c4nc5cc(C(F)(F)F)ccc5[nH]4)cn3)CC2)c1 [Example 141, methyl 3-[[1-[5-[5-(trifluoromethyl)-1H-benzol[d]imidazol-2-yl]pyridine-2-yl]piperidin-4-yl]methoxy]benzoate]

Molecular target: T2, human DGAT1 (Homo sapiens, UniProt O75907)
T2 sequence (O75907 1-488): T1 sequence (O75907 1-488)
Assay: DGAT1 CPM Assay
Format: biochemical
Settings: human DGAT1, CPM fluorescence, 1 hour incubation at room temperature
Description: 20 uL of 90 uM CPM reagent in 90% ethanol was added after 1 hour incubation at room temperature.

Structure (SMILES) | IC50 [µM]
O=C(NS(=O)(=O)c1cccnc1)[C@H]1CC[C@H](OC2CCN(c3ccc(-c4nc5cc(F)ccc5[nH]4)cn3)CC2)CC1 [Example 82] | 0.019
O=C(O)C[C@H]1CC[C@H](OC2CCN(c3ccc(-c4nc5cccc(Br)c5[nH]4)cn3)CC2)CC1 [Example 14] | 0.007
O=C(NS(=O)(=O)c1ccccc1)[C@H]1CC[C@H](OC2CCN(c3ccc(-c4nc5cc(F)ccc5[nH]4)cn3)CC2)CC1 [Example 87] | 0.014
O=C(O)C[C@H]1CC[C@H](OC2CCN(c3ccc(-c4nc5cc(C(F)(F)F)cnc5[nH]4)cn3)CC2)CC1 [Example 17] | 0.024
O=C1CN([C@H]2CC[C@H](OC3CCN(c4ccc(-c5nc6cc(F)c(F)cc6[nH]5)cn4)CC3)CC2)S(=O)(=O)N1 [Example 119] | 0.004
O=C(O)C[C@H]1CC[C@@H](OC2CCN(c3ccc(-c4nc5ccccc5[nH]4)cn3)CC2)CC1 [Example 8] | 0.015
O=C(NS(=O)(=O)c1ccc(F)cc1)[C@H]1CC[C@H](OC2CCN(c3ccc(-c4nc5cc(F)ccc5[nH]4)cn3)CC2)CC1 [Example 88] | 0.009
COC(=O)C(C)(C)COC1CCN(c2ccc(-c3nc4ccccc4[nH]3)cn2)CC1 [Example 35] | 0.029
O=C(O)c1cncc(OC2CCN(c3ccc(-c4nc5cc(Cl)ccc5[nH]4)cn3)CC2)c1 [Example 128] | 0.324
O=C(O)C1(COC2CCN(c3ccc(-c4nc5ccc(F)cc5[nH]4)cn3)CC2)CCOCC1 [Example 46] | 0.097
O=C(O)c1ncc(OC2CCN(c3ccc(-c4nc5cc(Cl)ccc5[nH]4)cn3)CC2)cn1 [Example 127, 5-(1-(5-(5-chloro-1H-benzo[d]imidazol-2-yl)pyridin-2-yl)piperidin-4-yloxy)pyrimidine-2-carboxylic acid] | 0.1
CCOc1ccc2nc(-c3ccc(N4CCC(O[C@H]5CC[C@H](CC(=O)O)CC5)CC4)nc3)[nH]c2n1 [Example 4, [trans-4-({1-[5-(5-ethoxy-3H-imidazo[4,5-b]pyridin-2-yl)pyridin-2-yl]piperidin-4-yl}oxy)cyclohexyl]acetic acid] | 0.027
C[C@]1(C(=O)O)CC[C@@H](OC2CCN(c3ccc(-c4nc5cc(Cl)c(Cl)cc5[nH]4)cn3)CC2)CC1 [Example 109] | 0.002
COc1ccc2[nH]c(-c3ccc(N4CCC(O[C@H]5CC[C@H](CC(=O)O)CC5)CC4)nc3)nc2n1 [Example 22] | 0.051

Further lines, results first:

IC50 [µM] | Structure (SMILES)
0.002 | O=C(O)c1ccc(OC2CCN(c3ccc(-c4nc5ccc(C(F)(F)F)cc5[nH]4)cn3)CC2)nc1 [Example 123]
0.011 | O=C(O)[C@@H]1[C@@H]2C[C@H](OC3CCN(c4ccc(-c5nc6cc(C(F)(F)F)ccc6[nH]5)cn4)CC3)C[C@@H]21 [Example 135]
0.004 | CC(C)(COC1CCN(c2ccc(-c3nc4cc(C(F)(F)F)ccc4[nH]3)cn2)CC1)C(=O)O [Example 34]
0.004 | O=C(O)[C@H]1[C@@H]2C[C@@H](OC3CCN(c4ccc(-c5nc6cc(C(F)(F)F)ccc6[nH]5)cn4)CC3)C[C@@H]21 [Example 134]
0.425 | Cc1ccc2[nH]c(-c3ccc(N4CCC(O[C@H]5CC[C@@](C)(C(=O)O)CC5)CC4)nc3)nc2n1 [Example 110]
0.006 | O=C(O)CC1CC(OC2CCN(c3ccc(-c4nc5ccc(C(F)(F)F)cc5[nH]4)cn3)CC2)C1 (stereo not drawn) [Example 51]
0.026 | N#Cc1ccc2[nH]c(-c3ccc(N4CCC(O[C@H]5CC[C@H](CC(=O)O)CC5)CC4)nc3)nc2c1 [Example 18]
0.089 | O=C(O)C[C@H]1CC[C@@H](OC2CCN(c3ccc(-c4nc5cc(F)ccc5[nH]4)cn3)C2)CC1 (single isomer, unassigned) [Example 140]
0.002 | O=C(O)[C@H]1CC[C@@H](OC2CCN(c3ccc(-c4nc5cc(Cl)ccc5[nH]4)cn3)CC2)CC1 [Example 76]
0.015 | O=C(O)c1cc(OC2CCN(c3ccc(-c4nc5cc(Cl)ccc5[nH]4)cn3)CC2)no1 [Example 130]
0.009 | C[C@]1(C(=O)O)CC[C@H](OC2CCN(c3ccc(-c4nc5ccc(F)cc5[nH]4)cn3)CC2)CC1 [Example 99]
0.002 | O=C(O)CC1C[C@@H]2CC(OC3CCN(c4ccc(-c5nc6ccc(C(F)(F)F)cc6[nH]5)cn4)CC3)C[C@@H]2C1 (stereo partly drawn) [Example 56]
0.006 | O=C(O)[C@@H]1[C@@H]2C[C@@H](OC3CCN(c4ccc(-c5nc6cc(C(F)(F)F)ccc6[nH]5)cn4)CC3)C[C@@H]21 [Example 136]
0.085 | O=C(O)C1(C(=O)O)CC(OC2CCN(c3ccc(-c4nc5cc(C(F)(F)F)ccc5[nH]4)cn3)CC2)C1 [Example 95]
0.019 | O=C(O)C[C@H]1CC[C@H](OC2CCN(c3ccc(-c4nc5ccccc5[nH]4)cn3)CC2)CC1 [Example 7]
0.44 | Cc1ccc2[nH]c(-c3ccc(N4CCC(O[C@H]5CC[C@H](CC(=O)O)CC5)CC4)nc3)nc2n1 [Example 21]
1 | Cc1ccc2[nH]c(-c3ccc(N4CCC(OC5CC(C(=O)O)(C(=O)O)C5)CC4)nc3)nc2n1 [Example 97]
0.051 | O=C(O)CC1CC(OC2CCN(c3ccc(-c4nc5cc(F)ccc5[nH]4)cn3)CC2)C1 (stereo not drawn) [Example 54]
0.071 | CCOC(=O)[C@H]1CC[C@H](OC2CCN(c3ccc(-c4nc5cc(F)ccc5[nH]4)cn3)CC2)CC1 [Example 73]
